Measurements as given in article PMC8062851, “2-Methoxyestradiol and its derivatives inhibit store-operated Ca^2+ entry in T cells: Identification of a new and potent inhibitor” (Biochimica et Biophysica Acta. Molecular Cell Research, 2021).

Columns and labels:
SOCE in H1299 cells = assay: SOCE inhibition, Ca2+ free/Ca2+ re-addition protocol in H1299 cells; assay type: cell-based, human; conditions: 10 μM
Experimental: Jurkat T-lymphocytes were cultured in RPMI 1640 medium containing 25 mM HEPES and GlutaMAX-1 (Gibco, Life Technologies), supplemented with 7.5% (v/v) newborn calf serum (NCS) (Biochrom, Merck Millipore), 100 U/ml penicillin and streptomycin (standard JMP medium). Cell density was kept between 0.3 and 1.2 ∗ 10^6 cells/ml. H1299 cells were cultured in DMEM (Dulbecco's modified Eagle's medium; Gibco, Life Technologies) supplemented with 10% (v/v) (FCS) (Biochrom, Merck Millipore), 4 mM L-glutamine, 100 μg/ml streptomycin, and 100 units/ml penicillin.
Jurkat T-lymphocytes, primary human CD4^+ T cells and H1299 cells were pelleted at 450 ×g for 5 min, rat TMBP at 300 ×g for 8 min at room temperature and were resuspended in 1 ml of either standard JMP medium (Jurkat, H1299 and human CD4^+ T cells) or standard DMEM based medium containing 10% fetal bovine serum (FBS) (v/v) (TMBP cells). […]
10^6 Jurkat T-lymphocytes, H1299 cells, TMBP cells or 4*10^6 primary human CD4^+ T cells were added into a 10 × 10 mm quartz glass cuvette (Hellma Analytics, Germany) that was placed into a fluorescence spectrophotometer (F-2710, Hitachi, Japan). […] Fluorescence intensity was measured at an emission wavelength of 495 ± 5 nm for both excitation wavelengths.

human PBMCs = assay: In vitro activation of human PBMCs by anti-CD3, interferon-γ mRNA by qPCR; assay type: cell-based; conditions: human PBMC; anti-CD3 stimulation; 24 h; qPCR
Experimental: In vitro activation assays were performed in 96-well plates. Briefly, 10^5 PBMCs isolated from human peripheral blood by Ficoll gradient were added onto plates coated with anti-human CD3 monoclonal antibody (5 μg ml^−1 in PBS, clone OKT3, Biolegend). 2ME2 or STX564 dissolved in DMSO were added in varying concentrations (0.01, 0.1, 1, 10 μM). […]. PBMC activation on mRNA level was determined using qPCR on samples collected 24 h after CD3 stimulation.
Total RNA was isolated using the standard TRIzol method. cDNA was synthesized using the RevertAid First Strand cDNA Synthesis Kit (Thermo Fisher Scientific). Quantitative PCR (qPCR) was performed using the StepOnePlus™ Real-Time PCR System (Applied Biosystems), as previously described [[23], [24], [25]]. Rat TMBP cell data were obtained from three to four independent duplicate measurements. β-actin served as housekeeping gene. Human PBMC data were obtained from two independent healthy donors and duplicate measurements (representative data of one donor are shown). HPRT served as housekeeping gene. For all probes (TaqMan), a combination of 5′-FAM and 3′-TAMRA quencher was used as described.

CCc1cc2c(cc1OS(N)(=O)=O)CC[C@@H]1[C@@H]2CC[C@]2(C)[C@@H](CC#N)CC[C@@H]12 [STX564, 2-ethyl-3-sulfamoyloxy-17β-cyanomethylestra-1,3,5(10)-triene]
SOCE inhibition (SOCE in H1299 cells): significantly inhibited | concentration at which antagonist effects on interferon-γ expression were observed (human PBMCs): ≥ 1 µM
